# Data from publication PMC10721329, “Quisinostat is a brain-penetrant radiosensitizer in glioblastoma” (JCI Insight, 2023).
# Values joined by “and” are separate entries in the source; they are usually repeats but may differ in a detail not shown here. Equal entries are not always repeated.
# Assays:
# [1] = test system: GB282 patient-derived GSC line; test: CellTiter-Glo dose-response cell viability assay; assay type: cell-based, human
# Description: (§1) QST (JNJ-26481585) is a second-generation hydroxamic acid harboring remarkable selectivity toward class I HDACs, with a biochemical IC50 of 0.1 nM for HDAC1 ([13]). […] To determine the cytotoxic effects of QST, we performed a dose-titration cell viability assay in 7 patient-derived GSC lines (BT145, GB187, GB239, GB282, GB71, GB82, and GB126) and 1 long-term serum-grown human GBM cell line (U87). Because GBMs display a high degree of intratumoral heterogeneity, we used GSCs derived from both primary and recurrent GBMs that harbored distinct genetic mutations or aberrations, growth rates, MGMT promoter methylation status, and gene expression profiles (Supplemental Figure 1; supplemental material available online with this article; https://doi.org/10.1172/jci.insight.167081DS1). Cell lines were treated with various concentrations of QST (10–1000 nM), and cell viability was measured 3–5 days later (Figure 1, A and B). […] Treatment with QST at the IC50 induced significant inhibition of proliferation (Ki67) and an increase in programmed cell death (cleaved caspase 3) in 2 different GSC lines (Figure 1, C and D). Additional analyses confirmed that QST induces apoptosis after short-term treatment through increased staining of the apoptotic marker annexin V (Figure 2A) and cell cycle arrest (in G2- or S-phase; Figure 2B and Supplemental Figure 1B).
# (§2) GSCs were seeded in laminin-coated tissue culture–treated 96-well plates (clear bottom, white plate; Corning) at a density of 1000–5000 cells per well (cell line dependent) in GSC media. U87-MG were seeded using their normal growth conditions without laminin (10% bovine calf serum in DMEM). All cells were incubated at 37°C and allowed to adhere overnight. The next day, cells were treated with incremental concentrations of QST (Selleckchem; 0, 10, 25, 50, 100, 250, 500, and 1000 nM) diluted in media. Cells treated without QST were treated with DMSO diluted in media. Following treatment with QST, cells were grown for 3 to 5 days (cell line dependent), and cell viability was measured and quantified. All cell viability measurements were performed using the CellTiter-Glo luminescent cell viability assay (Promega) following the manufacturer’s instructions. For the sulforhodamine B colorimetric assay for cytotoxicity, the protocol was performed as described elsewhere ([33]). All cell viability results represent the mean of at least 3 biological replicates, each containing 3 technical replicates.
# [2] = test system: GB126 patient-derived GSC line; test: CellTiter-Glo dose-response cell viability assay; assay type: cell-based, human
# Description: as §1, §2
# [3] = Body weight / tolerability in flank tumor study; assay type: in vivo; set-up: weight of flank tumor mice: unit not given here; conditions: for weight of flank tumor mice: individual mice
# Description: We next examined whether QST treatment alone or in combination with IR would be effective in slowing tumor growth in a flank model of GBM (U87). Tumor-bearing mice receiving IR were treated with 2-Gy fractions on Monday, Wednesday, and Friday (MWF) 2 hours after dosing with either vehicle solution or QST (10 mg/kg), for a total dose of 6 Gy. Following completion of IR, mice continued to receive vehicle or QST until the tumors reached the maximum volume threshold (Figure 5C). […] The mean tumor volume in mice with combination treatment was approximately 4.5-fold less than that in vehicle-treated mice at study completion (Figure 5D). […]
# treated with 2 Gy of ionizing radiation on MWF for a total 6 Gy (3 doses). Ionizing radiation was administered with the RS2000 series biological research irradiator (Rad Source Technologies).
# Treatment of Flank-Implanted Mice with QST and/or Radiation
# Implanted flank tumors were allowed to grow until the tumor size reached 100 mm3 volume. Mice were randomized into groups before treatment and underwent treatment on MWF for the entire duration of the experiment until the tumor volumes exceeded 2000 mm3. Treatment groups included vehicle (50% PEG-300), QST alone (10 mg/kg), flank IR treatment with vehicle (2 Gy), and flank IR treatment (2 Gy) with QST (10 mg/kg). For mice receiving IR treatment with or without QST, mice were treated with 2 Gy on MWF for a total 6 Gy during the first week of treatment. QST was administered to mice through intraperitoneal injections 2 hours before flank tumor radiation treatment. Upon completion of the radiation regimen, IR-treated mice subsequently received QST or vehicle alone for the rest of the experiment. Tumor growth and treatment response were monitored by manually measuring the tumor area twice per week starting at 13 days after implantation. Upon reaching the tumor volume threshold (2000 mm3), mice were sacrificed, and plasma and tissue samples were harvested for PD and PK analyses 2 hours after treatment with a final dose of QST (10 mg/kg). […]
smiles,measurement,setting,value
"Cn1cc(CNCC2CCN(c3ncc(C(=O)NO)cn3)CC2)c2ccccc21 [QST, quisinostat]",Cell viability (fraction of DMSO control),"[1]; GB282xTdT, QST 10 nM (log[nM] 1)",0.8875 and 0.8957
same,Cell viability (fraction of DMSO control),"[1]; GB282xTdT, QST 25 nM (log[nM] 1.39794)",0.7531 and 0.7488
same,Cell viability (fraction of DMSO control),"[1]; GB282xTdT, QST 50 nM (log[nM] 1.69897)",0.6063 and 0.5741
same,Cell viability (fraction of DMSO control),"[1]; GB282xTdT, QST 100 nM (log[nM] 2)",0.3901 and 0.3391
same,Cell viability (fraction of DMSO control),"[1]; GB282xTdT, QST 250 nM (log[nM] 2.39794)",0.1846 and 0.1521
same,Cell viability (fraction of DMSO control),"[1]; GB282xTdT, QST 500 nM (log[nM] 2.69897)",0.1138 and 0.08263
same,Cell viability (fraction of DMSO control),"[1]; GB282xTdT, QST 1000 nM (log[nM] 3)",0.07483 and 0.05455
same,viability at 0.01 µM,"[1]; Homo sapiens, GB282xTdT, QST 10 nM (log[nM] 1), read-out: Cell viability (fraction of DMSO control)",98.4%
same,viability at 0.025 µM,"[1]; Homo sapiens, GB282xTdT, QST 25 nM (log[nM] 1.39794), read-out: Cell viability (fraction of DMSO control)",84.2%
same,viability at 0.05 µM,"[1]; Homo sapiens, GB282xTdT, QST 50 nM (log[nM] 1.69897), read-out: Cell viability (fraction of DMSO control)",68%
same,viability at 0.1 µM,"[1]; Homo sapiens, GB282xTdT, QST 100 nM (log[nM] 2), read-out: Cell viability (fraction of DMSO control)",43.8%
same,viability at 0.25 µM,"[1]; Homo sapiens, GB282xTdT, QST 250 nM (log[nM] 2.39794), read-out: Cell viability (fraction of DMSO control)",22%
same,viability at 0.5 µM,"[1]; Homo sapiens, GB282xTdT, QST 500 nM (log[nM] 2.69897), read-out: Cell viability (fraction of DMSO control)",13.2%
same,viability at 1 µM,"[1]; Homo sapiens, GB282xTdT, QST 1000 nM (log[nM] 3), read-out: Cell viability (fraction of DMSO control)",8.37%
same,IC50,"[1]; Homo sapiens, GB282, 3-5 days",66 nM
same,Cell viability (fraction of DMSO control),"[2]; GB126 (GB126xTdT), QST 10 nM (log[nM] 1), no IR",0.8102 and 0.8005
same,Cell viability (fraction of DMSO control),"[2]; GB126 (GB126xTdT), QST 25 nM (log[nM] 1.39794), no IR",0.6353 and 0.6191
same,Cell viability (fraction of DMSO control),"[2]; GB126 (GB126xTdT), QST 50 nM (log[nM] 1.69897), no IR",0.4839 and 0.5154
same,Cell viability (fraction of DMSO control),"[2]; GB126 (GB126xTdT), QST 100 nM (log[nM] 2), no IR",0.3119 and 0.4774
same,viability at 0.01 µM,"[2]; Homo sapiens, GB126 (GB126xTdT), QST 10 nM (log[nM] 1), no IR, read-out: Cell viability (fraction of DMSO control)",79.2%
same,viability at 0.025 µM,"[2]; Homo sapiens, GB126 (GB126xTdT), QST 25 nM (log[nM] 1.39794), no IR, read-out: Cell viability (fraction of DMSO control)",66.8%
same,viability at 0.05 µM,"[2]; Homo sapiens, GB126 (GB126xTdT), QST 50 nM (log[nM] 1.69897), no IR, read-out: Cell viability (fraction of DMSO control)",57.6%
same,viability at 0.1 µM,"[2]; Homo sapiens, GB126 (GB126xTdT), QST 100 nM (log[nM] 2), no IR, read-out: Cell viability (fraction of DMSO control)",44.3%
same,IC50,"[2]; Homo sapiens, GB126, 3-5 days",86 nM
same,tolerability (mean weights),"[3]; 10 mg/kg IP MWF, alone and in combination with IR, flank tumor study",well tolerated
same,weight of flank tumor mice,[3]; day 13 post-injection,29.8
same,weight of flank tumor mice,[3]; day 22 post-injection,29.9 (2×) and 27.3 and 29.1 and 26 (2×) and 31.1 and 29.8 and 28 and 28.9
